{
  "source": "patent US20170051306A1",
  "about": "“NOVEL METHOD FOR LABELLING CANCERIZATION-CAUSING CELL IN STEM CELLS, AND THERAPY METHOD” (KAGOSHIMA UNIVERSITY, priority 2014, published 2017)",
  "molecules": {"B1": {"name": "tmpk (F105Y): genetically improved human thymidylate kinase used as suicide gene (protein, UniProt P23919 2-212, looked up, variant F105Y)", "Thymidylate kinase": "AARRGALIVLEGVDRAGKSTQSRKLVEALCAAGHRAELLRFPERSTEIGKLLSSYLQKKSDVEDHSVHLLFSANRWEQVPLIKEKLSQGVTLVVDRYAFSGVAYTGAKENFSLDWCKQPDVGLPKPDLVLFLQLQLADAAKRGAFGHERYENGAFQERALRCFHQLMKDTTLNWKMVDASKSIEAVHEDIRVLSEDAIRTATEKPLGELWK"}},
  "key": {"[1]": {"system": "KhES1 cells after differentiation induction treatment", "test": "Safety upon in vitro GCV administration to differentiated cells", "method": "Analysis was conducted using the above sorted KhES1 cells to confirm safety upon GCV administration after differentiation induction. For differentiation induction, cells were seeded on a 96-well low adhesive plate containing ES medium (excluding LIF) at 3×10^3 cells per well. Culture was performed for one week so that an embryonic body was formed. Thereafter, subculture on a gelatin-coated dish was continued for 28 days or more so that sufficiently differentiated cells were produced. Cells subjected to differentiation induction were re-seeded on a 96-well plate at 1×10^5 cells per well. Starting from the following day, GCV was administered at 0, 0.01, 0.1, 1, 10, and 100 μg/mL to the groups of survivin-Venus-2A-HSV-tk (A), CAG-Venus-2A-HSV-tk (B), survivin-Venus-2A-puromycin lacking HSV-tk (C), and non-infected cells (NC)(D) for 4 days."}, "KhES1 cells [2]": {"system": "KhES1 cells", "test": "In vitro toxicity of GCV on undifferentiated lentivirus-infected cells", "method": "Cells were infected with the vectors. The infected cells (GFP-positive cells) were sorted using FACS ARIA II (BD).\nIn the case of KhES 1, KhES 1 cells were cultured overnight in medium containing 10 μM Y27632, treated with CTK, and dispersed into separate cells. The number of cells was counted, a necessary amount of cells were centrifuged (1000 rpm, 5 minutes), and resuspended in 10 μM Y27632-containing PBS. Alexa Fluor 488 anti-Human SSEA4 (BIOLEGEND) serving as an antibody for labeling undifferentiated cells (5 μL) was added to 100 μL of a cell suspension (1×10^6 cells), cells were suspended on ice for every 10 minutes during stationary placement for 30 minutes for labeling of the cells. The cells were washed once with 10 μM Y27632-containing PBS, suspended in 10 μM Y27632-containing ES medium, and then GFP-positive cells labeled with the antibody were evaluated as undifferentiated lentivirus-infected KhES 1 cells using a flow cytometer.\nCytotoxic effects after GCV administration were analyzed using the above sorted KhES1 cells and D3 cells. KhES1 cells were seeded on a 96-well plate at 1×10^5 cells per well. […] Cytotoxic effects after 4-day administration were determined by WST-8 assay, which is modified MTT assay. […] Absorbance of this formazan at 450 nm was directly measured, thereby determining the number of viable cells (E)."}, "[3]": {"system": "mouse ES/iPS cells or human ES/iPS cells", "details": "cells subcutaneously transplanted; Non-Patent Documents 7 and 8; cited from earlier work"}, "MKN45 cells [4]": {"system": "MKN45 cells", "test": "In vitro cytotoxic effects of suicide genes plus drug, viable cell count", "details": "high concentration AZT", "method": "In order to evaluate cytotoxicity of suicide genes in cells of each type, HSV-tk, human-tmpk, and iCaspase9 were introduced into cells, and cell killing effects were examined and compared with the addition of drugs. […] For human-tmpk and iCasp9, plasmids were introduced into cells. Cells of each type described below were seeded on a 24-well plate at the corresponding number of cells. • KhES1 cells: 4×10^4 cells/well • MKN45 cells: 2×10^4 cells/well (only tmpk iCasp9) • BJ cells: 1×10^4 cells/well\nOn the following day, infection with Ad.CAG-HSV-tk at MOI=10 was performed, the medium was renewed 24 hours later, and then 10 μL of GCV (10 μg/mL) was administered for 4 days. For human-tmpk and iCasp9, 0.5 μg of each plasmid was added to 25 μL of OPTI-MEM, and 2 μL of FUGENE HD (QIAGEN) was added, followed by vortexing and stationary placement of 15 minutes. The total amount of the resulting product was administered. The medium was renewed 24 hours later. Then, AZT was administered at 0, 30, 100, and 300 μM to each well of human-tmpk-transfected cells for 3 days. For iCasp3, Dimerizer was administered at 0, 0.03, 0.1, and 0.3 μM to each well for 3 days. After drug administration, cytotoxic effects were determined by counting the number of viable cells. […] Trypan blue (10 μL) was added to each collected cell suspension and the number of viable cells was counted."}, "KhES1 cells [5]": {"system": "KhES1 cells", "test": "In vitro cytotoxic effects of suicide genes plus drug, viable cell count", "format": "cell-based, human", "details": "high-concentration AZT", "procedure": "The total amount of the resulting product was administered. The medium was renewed 24 hours later. […] Then, 10 μL of the cells were collected."}, "Jurkat cells": {"system": "Jurkat cells", "test": "AZT sensitivity of sorted cells constitutively expressing human-tmpk versus non-infected cells (NC)", "format": "cell-based", "details": "AZT at high concentrations", "procedure": "(§1) In addition, regarding human-tmpk, after infection with a lentiviral vector, a similar experiment was conducted using sorted cells permanently-expressing the gene based on specificity to CD19.\n(§2) Starting from the following day, AZT was administered at 0, 0.1, 1, 10, 100, and 1000 μM to each well for 3 days, and the number of viable cells was counted by the method described above."}, "MKN45 cells [6]": {"system": "MKN45 cells", "test": "AZT sensitivity of sorted cells constitutively expressing human-tmpk versus non-infected cells (NC)", "format": "cell-based", "details": "AZT at high concentrations", "procedure": "as §1, §2"}, "[7]": {"details": "tmpk with minimum gene modification; cited from earlier work"}},
  "data": [
    {"molecule": "Nc1nc(O)c2ncn(COC(CO)CO)c2n1", "note": "[GCV, ganciclovir]", "values": [
      {"measurement": "cytotoxicity in non-infected cells (NC) after differentiation", "setting": "[1]; GCV 0 to 100 μg/mL for 4 days", "result": "No cytotoxicity was observed"},
      {"measurement": "non-specific cell killing effects in differentiated cells", "setting": "[1]; GCV at 10 μg/mL or more, compared with undifferentiated cells", "result": "Non-specific cell killing effects were not observed"},
      {"measurement": "specificity of GCV toxicity", "setting": "[1]; undifferentiated versus differentiated KhES1 cells, with or without HSV-tk", "result": "exhibits toxicity only in undifferentiated cells under the presence of HSV-tk"},
      {"measurement": "cytotoxic effects in non-infected cells (NC)", "setting": "KhES1 cells [2]; GCV 1 μg/mL", "result": "cytotoxic effects were not observed"},
      {"measurement": "HSV-tk-non-specific cytotoxicity", "setting": "KhES1 cells [2]; GCV concentration of 10 μg/mL or more", "result": "HSV-tk-non-specific cytotoxicity was observed"},
      {"measurement": "tumor reduction by GCV administration", "setting": "[3]", "result": "tumors can be reduced by GCV administration"}
    ]},
    {"molecule": "Cc1cn([C@H]2C[C@H](N=[N+]=[N-])[C@@H](CO)O2)c(=O)[nH]c1=O", "note": "[AZT, 3′-azido-3′-deoxythymidine]", "values": [
      {"measurement": "cell damage in cells not transfected with human-tmpk", "setting": "MKN45 cells [4]", "result": "Cell damage was observed even in cells not transfected with human-tmpk"},
      {"measurement": "cell damage in cells not transfected with human-tmpk", "setting": "KhES1 cells [5]", "result": "cell damage was observed even in cells not transfected with human-tmpk"},
      {"measurement": "cell damage in cells not transfected with human-tmpk", "setting": "Jurkat cells", "result": "cell damage was observed even in cells not transfected with human-tmpk"},
      {"measurement": "cell damage in cells not infected with human-tmpk", "setting": "MKN45 cells [6]", "result": "cell damage was induced at high concentrations even in cells not infected with human-tmpk"}
    ]},
    {"molecule": "B1", "values": [
      {"measurement": "increased action on AZT-MP", "setting": "[7]", "result": 200, "unit": "fold"}
    ]}
  ]
}
